In patent publication US20230310537A1, “TREATMENT OF VASCULAR EHLERS-DANLOS SYNDROME AND RELATED SYNDROMES” (The Johns Hopkins University, priority 2020, published 2023):
“Also recorded” adds a separate entry of the source.

How the values were obtained:
[1] = system: BL6 Col3a1^G938D/+ mice; assay: Kaplan-Meier survival / vascular rupture of drug-treated BL6 vEDS mice; format: in vivo; conditions: for elevated risk of rupture caused by the p38 inhibitor, under concomitant treatment (Kaplan-Meier survival): BL6 Col3a1^G938D/+ mice receiving SB203580 IP plus test drug (cobimetinib via drinking water, ruboxistaurin via chow) from weaning for 30 days, vs SB203580 alone
Text: Mice were maintained either on a C57BL/6J background (#000664, The Jackson Laboratory) or on a 129S6/SvEvTac background (#129SVE, Taconic Biosciences). Mice were considered to be 129S6/SvEvTac after backcrossing for a minimum of 4 generations. F1 and mixed mice were generated by interbreeding pure C57BL/6J and 129S6/SvEvTac mice. To identify the dominant genetic locus, mixed background wild-type females were bred to Col3a1^G938D/+ male mice on a pure BL6 background. Mice haploinsufficient or knockout for Map2k6 were originally obtained from the Jackson Laboratory (#008382) and backcrossed in the lab for a minimum of 10 generations. Restriction enzymes were used to detect the presence or absence of the Col3a1 mutation. The G209S mutation leads to the loss of an AvaII cut site and the G938D mutation leads to the gain of a BamHI cut site (AvaII R0153L; BamHI-HF R3136S, New England Biolabs). All mice found dead were assessed for cause of death by necropsy, noting in particular hemothorax and hemoperitoneum.
(§1) For drug trials in the Col3a1/^G938D/+ mice, mice were initiated on medication at weaning and continued until the end of the trial. Cobimetinib (GDC-0973/R0551404, Active Biochem) was dissolved in drinking water and filtered to reach a final concentration of 0.02 g/L giving an estimated dose of 2 mg/kg/day. Ruboxistaurin (LY333531 HCl, Selleck Chemicals) was mixed with powdered food (LabDiet) to give a concentration of 0.1 mg/g giving an estimated dose of 8 mg/kg/day. SB203580 (Selleck Chemicals) was administered at a dose of 5 mg/kg/d every 3 days by intraperitoneal injection. Animals receiving placebo (5% Tween in PBS) were also injected every 3 days by intraperitoneal injection.
Kaplan-Meier survival curves were compared using a log-rank (Mantel-Cox) test. Mice were censored only if unrelated to the outcome, such as for planned biochemical or histologic analysis or if the authors were directed to euthanize them by animal care staff, for malocclusion, fight wounds, or genital prolapse.

[2] = system: pPKCβ; assay: Western blot of pPKCβ in proximal descending aortas of treated vEDS mice; format: in vivo; conditions: aortas of Col3a1^G938D/+ mice, SB203580 treated vs placebo treated; p<0.01
Method: (§2) Protein was extracted using an automatic bead homogenizer in conjunction with a Protein Extraction Kit (Full Moon Biosystems). All protein lysis buffers contained both PhosSTOP and Complete™, Mini, EDTA-free Protease Inhibitor Cocktail (Roche). Western blotting was performed using LI-COR buffer and species appropriate secondary antibodies conjugated to IR-dye700 or IRdye-800 (LI-COR Biosciences), according to the manufacturer's guidelines and analyzed using LI-COR Odyssey. The following primary antibodies were used: anti-β-Actin (8H10D10) (Cell Signaling Technology, 3700), anti-phospho ERK1/2 (Cell Signaling Technology, 4370), anti-PKCβ (phospho 5660) (Abcam, 75837), anti-phospho p38 (Cell Signaling Technology, 4511).
as §1, with “Animals receiving placebo (5% Tween in PBS) were also injected every 3 days by intraperitoneal injection.” left out

[3] = system: pERK1/2; assay: Western blot of pERK1/2 in proximal descending aortas of treated vEDS mice; format: in vivo; conditions: aortas of Col3a1^G938D/+ mice, SB203580 treated vs placebo treated; p<0.01
Method: as §2
as §1, with “Animals receiving placebo (5% Tween in PBS) were also injected every 3 days by intraperitoneal injection.” left out

[4] = system: severe (Col3a1 G938D/+) and mild (Col3a1^G209S/+) mouse models of vEDS; conditions: either vEDS mouse model; interventions that inhibit PKC/ERK activation; cited from earlier work
[5] = system: MFS mice; conditions: therapies that attenuate TGF-β signaling and related pathways; cited from earlier work

Compound	aortic disease rupture risk [4]	elevated risk of rupture caused by the p38 inhibitor, under concomitant treatment (Kaplan-Meier survival) [1]	other results
C[S+]([O-])c1ccc(-c2nc(-c3ccncc3)c(-c3ccc(F)cc3)[nH]2)cc1 (centres unmarked) [SB203580]	–	–	rate of death / vascular rupture risk (Kaplan-Meier survival vs placebo) ([1]; BL6 Col3a1^G938D/+ mice, IP injection every 3 days starting at weaning, continuing for 40 days, Log-Rank p<0.01): significantly increased the rate of death; also recorded: increases vascular rupture risk; PKC activation (pPKCβ levels normalized to β-actin) [2]: increase; ERK activation (pERK1/2 levels normalized to β-actin) [3]: increase
O=C(c1ccc(F)c(F)c1Nc1ccc(I)cc1F)N1CC(O)([C@@H]2CCCCN2)C1 [cobimetinib]	rescue aortic disease rupture risk	rescued	–
CCCCc1nc(Cl)c(CO)n1Cc1ccc(-c2ccccc2-c2nn[nH]n2)cc1 [losartan]	–	–	aortic disease [5]: suppress aortic disease
CN(C)C[C@@H]1CCn2cc(c3ccccc32)C2=C(C(=O)NC2=O)c2cn(c3ccccc23)CCO1 [ruboxistaurin]	rescue aortic disease rupture risk	rescued	–
